Laboratory results from patent publication US4212862A, “O,O-Diaryl-1-acyloxy-2,2,2-trichloroethylphosphonates and fungicides based thereon” (priority 1978, dated 1980).
“And” between values parts separate entries of the source, which are not always exact repeats. Identical values can stand only once. Like-named read-outs stand apart in the source and are kept apart here.

Tests used:
[1] = test system: rust diseases of cereal crops; conditions: prior art; cited from earlier work
[2] = test system: stalk rust (Puccinia graminis f. tritici); format: in vivo; conditions: for Plant injury / Weight of 1,000 grains: Table 5, Moscow region, spring wheat Krasnozernaja, 3 sprayings
[3] = test system: rust diseases of cereal crops; assay: Activity against rust diseases of cereal crops (general statements); format: in vivo
[4] = test system: stalk rust of wheat (Puccinia graminis); format: in vivo; conditions: in vivo
[5] = test system: stalk rust (Puccinia graminis f. tritici); format: in vivo
[6] = test system: spores of Piricularia oryzae Cav.; format: cell-based; conditions: for Concentration causing 50% death of spores: 24 hours
[7] = test system: apple scab (Venturia inaequalis); conditions: in vivo
[8] = Acute peroral toxicity for warm-blooded animals (LD50, LD90); format: in vivo, white mice; conditions: mouse, in vivo, po
Experimental: (§1) Toxicity (LD50) was evaluated on males and females of white mice with peroral administration of the compounds. A portion of the test compound was mixed with the emulsifier Twin-20 and diluted with distilled water to the required working concentration. Administration of the preparation was effected by means of a metal probe and syringe directly into the stomach of test animals 2-3 hours after feeding. The tests were performed using several doses, 6 animals per each dose. Subsequent observation was effected for two weeks.

white mice = assay: as above; format: in vivo; conditions: peroral
Experimental: as §1

[9] = test system: potato phytophthora (Phytophthora infestans); format: in vivo; conditions: 1% aqueous emulsion; 18 °C, 14 days
plants = conditions: prior art; cited from earlier work
[10] = test system: yellow rust (P. striiformis); assay: Efficiency of Aphos for USVS against yellow rust of wheat under field conditions (Table 8); format: in vivo; conditions: Taskent region, spring wheat Kzyl Shark, 3.0 kg/ha, 7.5 l/ha (Zineb 600), 3 sprayings
[11] = test system: stalk rust (Puccinia graminis f. tritici); format: in vivo; conditions: Table 8, 3.0 kg/ha, 3 sprayings
yellow rust of wheat = conditions: in vivo
[12] = prior art; cited from earlier work
[13] = seeds after storage of grains for one year
[14] = Table 2, peroral, read-out: LD50 for white mice
[15] = Krasnodar region, winter wheat Odesskaja-51, 7.5 l/ha (Zineb 3.2 kg/ha, 600 l/ha)
[16] = Moscow region, spring wheat Krasnozernaja, 7.5 l/ha (Zineb 600)

CC1=C(C(=O)Nc2ccccc2)S(=O)(=O)CCO1 [Hydroxycarboxine, 1,4-dioxide-2,3-dihydro-6-methyl-5-phenylcarbamoyl-1,4-oxathiine]
activity against rust diseases [1]: efficient in killing rust fungi | Plant injury ([2]; 1.5 kg/ha a.p.): 21.7% | Weight of 1,000 grains ([2]; 1.5 kg/ha a.p.): 12.0 g | Plant injury ([2]; 3.0 kg/ha a.p.): 16.1% | Weight of 1,000 grains ([2]; 3.0 kg/ha a.p.): 12.4 g | Yield ([2]; in vivo): 9.5 c/ha and 9.3 c/ha | efficiency under different agroclimatic conditions including frequent heavy rains [3]: low-effective

CC(=O)OC(C(Cl)(Cl)Cl)P(=O)(Oc1ccccc1)Oc1ccccc1 (stereo not drawn) [I, O,O-diphenyl-1-acetoxy-2,2,2-trichloroethylphosphonate]
Percentage of injury lowered [4]: 98-100% and 70-97% | Percentage of plants injured with rust, 1-st evaluation ([5]; in vivo): 0.5% | Percentage of plants injured with rust, 2-nd evaluation ([5]; in vivo): 7.0% | Weight of 1,000 grains ([5]; in vivo): 18.7 g | Yield ([5]; in vivo): 17.40 c/ha | efficiency of suppressing spores relative to kitacin [6]: about 40 times | superiority over kitacin in respect of activity [6]: about 50 times | Concentration causing 50% death of spores [6]: 0.69 mg/L | protection of the apple tree from scab [7]: complete protection | period of fungicidal effect as compared to zineb ([3]; compared to zineb): longer period of a fungicidal effect as compared to zineb | protection of cereal crops from rust ([3]; even at a high level of infection): substantially completely protect cereal crops from rust | increase of the grain yield ([3]; high-volume spraying and USVS at 5 to 8 l/ha): up to 24 c/ha | efficiency compared with prior art anti-rust compositions ([3]; including zineb and hydroxycarboxine): superior over the prior art anti-rust fungicidal compositions including zineb and hydroxycarboxine | effect on yield of wheat grain (wheat plants; even at 8-times the increase of the dose): does not lower the yield of wheat grain | germination power (wheat plants; [13]): 99.5% | sprouting energy (wheat plants; [13]): 98.5% | LD50 at 336 h [8, 14]: 3500 mg/kg | LD50 at 336 h ([8]; Table 14, female mice, peroral, read-out: LD50 with trusty limits): 3500 mg/kg | LD50 at 336 h ([8]; white mice, peroral administration, read-out: acute toxicity): ~3500 mg/kg | LD90 with trusty limits (white mice; Table 14, female mice): 8,200 mg/kg

CN(C)C(=S)SSC(=S)N(C)C [TMTD, tetramethylthiuramdisulphide]
sporulation on treated tubers [9]: individual conidia were observed

CCCCCCC(=O)OC(C(Cl)(Cl)Cl)P(=O)(Oc1ccc(-c2ccccc2)cc1)Oc1ccc(-c2ccccc2)cc1 (stereo not drawn) [XLIX]
Percentage of injury lowered [4]: 49% | LD50 for white mice (white mice; Table 2, 20160 min): > 1,000 mg/kg

CCCCCCC(=O)OC(C(Cl)(Cl)Cl)P(=O)(Oc1cc(C)cc(C)c1)Oc1cc(C)cc(C)c1 (stereo not drawn) [XXIX]
Percentage of injury lowered [4]: 85% | Percentage of plants injured with rust, 1-st evaluation ([5]; in vivo): 0.5% | Percentage of plants injured with rust, 2-nd evaluation ([5]; in vivo): 9.5% | Weight of 1,000 grains ([5]; in vivo): 14.8 g | Yield ([5]; in vivo): 9.75 c/ha | LD50 at 336 h [8, 14]: > 1000 mg/kg

CCCCCCC(=O)OC(C(Cl)(Cl)Cl)P(=O)(Oc1ccc(C)cc1)Oc1ccc(C)cc1 (stereo not drawn) [XXI]
Percentage of injury lowered [4]: 97% | Percentage of plants injured with rust, 1-st evaluation ([5]; in vivo): 0.5% | Percentage of plants injured with rust, 2-nd evaluation ([5]; in vivo): 7.5% | Weight of 1,000 grains ([5]; in vivo): 18.2 g | Yield ([5]; in vivo): 14.00 c/ha | LD50 at 336 h [8, 14]: > 1000 mg/kg

CCCC(=O)OC(C(Cl)(Cl)Cl)P(=O)(Oc1cc(C)cc(C)c1)Oc1cc(C)cc(C)c1 (stereo not drawn) [XXVIII]
Percentage of injury lowered [4]: 73% | Percentage of plants injured with rust, 1-st evaluation ([5]; in vivo): 0.5% | Percentage of plants injured with rust, 2-nd evaluation ([5]; in vivo): 7.0% | Weight of 1,000 grains ([5]; in vivo): 16.6 g | Yield ([5]; in vivo): 11.60 c/ha | LD50 at 336 h [8, 14]: > 1000 mg/kg

CCC(=O)OC(C(Cl)(Cl)Cl)P(=O)(Oc1cc(C)cc(C)c1)Oc1cc(C)cc(C)c1 (stereo not drawn) [XXVII]
Percentage of injury lowered [4]: 92% | Percentage of plants injured with rust, 1-st evaluation ([5]; in vivo): 0.5% | Percentage of plants injured with rust, 2-nd evaluation ([5]; in vivo): 10.5% | Weight of 1,000 grains ([5]; in vivo): 17.1 g | Yield ([5]; in vivo): 11.50 c/ha | LD50 at 336 h [8, 14]: > 1000 mg/kg

CC(=O)OC(C(Cl)(Cl)Cl)P(=O)(Oc1cc(C)cc(C)c1)Oc1cc(C)cc(C)c1 (stereo not drawn) [XXVI]
Percentage of injury lowered [4]: 84% | Percentage of plants injured with rust, 1-st evaluation ([5]; in vivo): 0.5% | Percentage of plants injured with rust, 2-nd evaluation ([5]; in vivo): 10.0% | Weight of 1,000 grains ([5]; in vivo): 16.7 g | Yield ([5]; in vivo): 11.70 c/ha | LD50 at 336 h [8, 14]: > 1000 mg/kg

CCC(=O)OC(C(Cl)(Cl)Cl)P(=O)(Oc1ccc(Cl)cc1)Oc1ccc(Cl)cc1 (stereo not drawn) [XXXI]
Percentage of injury lowered [4]: 82% and 59% | Percentage of plants injured with rust, 1-st evaluation ([5]; in vivo): 0.5% | Percentage of plants injured with rust, 2-nd evaluation ([5]; in vivo): 8.0% | Weight of 1,000 grains ([5]; in vivo): 18.0 g | Yield ([5]; in vivo): 13.30 c/ha | LD50 at 336 h [8, 14]: > 1000 mg/kg

CC(=O)OC(C(Cl)(Cl)Cl)P(=O)(Oc1ccc(Cl)cc1)Oc1ccc(Cl)cc1 (stereo not drawn) [XXX]
Percentage of injury lowered [4]: 89% and 68% | Percentage of plants injured with rust, 1-st evaluation ([5]; in vivo): 0.5% | Percentage of plants injured with rust, 2-nd evaluation ([5]; in vivo): 7.0% | Weight of 1,000 grains ([5]; in vivo): 20.9 g | Yield ([5]; in vivo): 16.70 c/ha | LD50 at 336 h [8, 14]: > 1000 mg/kg

CCCC(=O)OC(C(Cl)(Cl)Cl)P(=O)(Oc1ccc(C)cc1)Oc1ccc(C)cc1 (stereo not drawn) [XX]
Percentage of injury lowered [4]: 97% | Percentage of plants injured with rust, 1-st evaluation ([5]; in vivo): 0.5% | Percentage of plants injured with rust, 2-nd evaluation ([5]; in vivo): 7.5% | Weight of 1,000 grains ([5]; in vivo): 18.2 g | Yield ([5]; in vivo): 13.45 c/ha | LD50 at 336 h [8, 14]: > 1000 mg/kg

Nc1ccc(S(=O)(=O)O)cc1 [anilate]
activity against rust diseases [1]: low-efficiency | phytotoxicity (plants): phytotoxic

CCOP(=O)(OCC)SCc1ccccc1 [kitacin, O,O-diethyl-S-benzylthiophosphate, reference compound]
Concentration causing 50% death of spores [6]: 28.6 mg/L

zinc ethylenebisdithiocarbamate [Zineb]
Weight of 1,000 grains ([5]; 3 kg/ha a.i., three sprayings): 14.0 g | Yield ([5]; 3 kg/ha a.i., three sprayings): 8.55 c/ha | Percentage of plants injured with rust, 1-st evaluation ([5]; 3 kg/ha a.i., 9 days after the first spraying, Moscow region, spring wheat Krasnozernaja): 0.5% | Percentage of plants injured with rust, 2-nd evaluation ([5]; 3 kg/ha a.i., two weeks after the third spraying, Moscow region, spring wheat Krasnozernaja): 12.0% | activity against rust diseases [1]: high activity | Grain yield [10]: 20.8 c/ha | Percentage of injured plants [10]: 14.4% | Weight of 1,000 grains [10]: 31.6 g | Grain yield [11, 15]: 34.5 c/ha | Percentage of injured plants [11, 15]: 16.0% | Weight of 1,000 grains [11, 15]: 35.6 g | Grain yield [11, 16]: 8.0 c/ha | Percentage of injured plants [11, 16]: 23.3% | Weight of 1,000 grains [11, 16]: 12.6 g | reduced the degree of injury as compared to the control [7]: 97% | efficiency under different agroclimatic conditions including frequent heavy rains [3]: low-effective | Percentage of injured plants, 17.05 (yellow rust of wheat): 4% and 6% and 5% | Weight of 1,000 grains (yellow rust of wheat): 35.4 g and 31.0 g and 34.8 g | Yield (yellow rust of wheat): 411 and 351 and 412 | efficiency with longer intervals between sprayings (yellow rust of wheat): substantially reduced to zero | stability upon storage [12]: not stable upon storage
